Read-outs that look alike come from different tables or passages of the source.
Assays:
Type in all cases: in vivo
cotton aphids [1] = test: Test Example 3: plant foot irrigation of cucumber seedling in plastic cup, cotton aphids inoculated after seven days; settings: 144 h, read-out: Control value
Protocol: (§1) The formulations were diluted with water so that the concentration of the active ingredient became 500 ppm and thus test diluents were prepared. On the other hand, a plant foot of cucumber seedling (second true leaf development stage) planted in a plastic cup was irrigated with any one of diluents (5 ml). The seedling was kept in a green house of 25° C. for seven days. The cucumber leaves were inoculated with 30 cotton aphids (all stages) and kept in the green house for further six days. Thereafter, the number of survived cotton aphids parasitic on the cucumber leaves was counted, and the control value was calculated by the following equation. Control value(%)={1−(Cb×Tai)/(Cai×Tb)}×100 wherein each character represents the following meaning: Cb: number of insects in non-treated section before treatment Cai: number of insects in non-treated section during observation Tb: number of insects in treated section before treatment Tai: number of insects in treated section during observation

halymorpha halys = test: Test Example 7: treated tissue paper with budding soybeans, halymorpha halys mortality; settings: 168 h
Protocol: Formulations were prepared by the method described in Formulation Example 1 with respect to each of the active compound 13, the active compound 15, the active compound 18, the active compound 35, the active compound 37, the active compound 44, the active compound 65, the active compound 68 and the active compound 82. The formulations were diluted with water so that the concentration of the active ingredient became 100 ppm and thus test diluents were prepared.
On the other hand, a tissue paper placed in an aluminum cup was irrigated with any one of the above-mentioned diluents (5 ml). The tissue paper was placed in a polyethylene cup together with three budding soybeans. In the polyethylene cup, ten halymorpha halys were released, and the polyethylene cup was lidded by a polyethylene lid. Seven days after the releasing of the insects, the number of survived insects was counted, and the mortality was calculated by the following equation. Mortality(%)=(number of dead insects/number of insects to be tested)×100

cotton aphids [2] = test: Test Example 2: plant foot irrigation of cucumber seedling in urethane mat, cotton aphids inoculated one day after treatment; settings: 168 h, read-out: Control value
Protocol: as §1, with “urethane mat” for “plastic cup”, “One day after the treatment, the” for “The seedling was kept in a green house of 25° C. for seven days. The”, “stages). Further seven days after,” for “stages) and kept in the green house for further six days. Thereafter,”

rice brown planthopper [3] = test: Test Example 6: plant foot irrigation of rice plant seedling, rice brown planthopper released after seven days; settings: Nilaparvata lugens, 144 h, read-out: Control value
Protocol: The formulations were diluted with water so that the concentration of the active ingredient became 500 ppm and thus test diluents were prepared. On the other hand, a plant foot of rice plant seedling (two weeks after seeding, second leaf development stage) planted in a plastic cup was irrigated with any one of diluents (5 ml). The seedling was kept in a green house of 25° C. for seven days. Thirty first-instars of rice brown planthopper were released to the seedling, which was kept in the green house at 25 C for six days. Thereafter, the number of survived rice brown planthopper parasitic on rice plant leaves was counted, and the control value was calculated by the following equation. Control value(%)={1−(Cb×Tai)/(Cai×Tb)}×100 wherein each character represents the following meaning: Cb: number of insects in non-treated section before treatment Cai: number of insects in non-treated section during observation Tb: number of insects in treated section before treatment Tai: number of insects in treated section during observation

[4] = system: cotton aphids (Aphis gossypii Glover); test: Test Example 1: test diluent scattered on cucumber seedling inoculated with cotton aphids; settings: 120 h, read-out: Control value
Protocol: The formulations were diluted with water so that the concentration of the active ingredient became 500 ppm and thus test diluents were prepared. On the other hand, a cucumber seedling (second true leaf development stage) planted in a plastic cup was inoculated with about 30 cotton aphids (Aphis gossypii Glover) and allowed to stand for one day. To the seedling, any one of the diluents (10 ml) was scattered. Five days after the scattering, the number of survived cotton aphids parasitic on the cucumber leaves was counted, and the control value was calculated by the following equation. Control value(%)={1−(Cb×Tai)/(Cai×Tb)}×100 wherein each character represents the following meaning: Cb: the number of insects in non-treated section before treatment Cai: the number of insects in non-treated section during observation Tb: the number of insects in treated section before treatment Tai: the number of insects in treated section during observation

tobacco whitefly = test: Test Example 4: test diluent scattered on tomato seedling with hatched tobacco whitefly larvae; settings: 168 h, read-out: Control value
Protocol: The formulations were diluted with water so that the concentration of the active ingredient became 500 ppm and thus test diluents were prepared. On the other hand, by releasing tobacco whitefly imagos to a tomato seedling planted in a plastic cup to allow them to lay eggs for about 24 hours. The tomato seedling was kept in a green house for eight days. At the stage in which larvae hatched from the laid eggs, any of the test diluents was scattered at the rate of 10 ml/cup. The tomato seedling was kept in the greenhouse at 25° C. for seven days. The number of survived larvae on tomato leaves was counted, and the control value was calculated by the following equation. Control value(%)={1−(Cb×Tai)/(Cai×Tb)}×100 wherein each character represents the following meaning: Cb: number of insects in non-treated section before treatment Cai: number of insects in non-treated section during observation Tb: number of insects in treated section before treatment Tai: number of insects in treated section during observation

rice brown planthopper [5] = test: Test Example 5: test diluent scattered on rice plant seedling, rice brown planthopper released; settings: Nilaparvata lugens, 144 h, read-out: Control value
Protocol: The formulations were diluted with water so that the concentration of the active ingredient became 500 ppm and thus test diluents were prepared. On the other hand, to a rice plant seedling (two weeks after seeding, second leaf development stage) planted in a plastic cup, any one of the diluents (10 ml) was scattered. After the drug solution scattered on the rice plant was dried, 30 first-instars of rice brown planthopper were released on the rice plant, which was kept in the green house at 25° C. for six days. Thereafter, the number of rice brown planthopper parasitic on rice plant was counted and the control value was calculated by the following equation. Control value(%)={1−(Cb×Tai)/(Cai×Tb)}×100 wherein each character represents the following meaning: Cb: number of insects in non-treated section before treatment Cai: number of insects in non-treated section during observation Tb: number of insects in treated section before treatment Tai: number of insects in treated section during observation

cotton aphids [6] = test: Test Example 8 and Comparative Test Example: 200 ppm diluent scattered on cucumber seedling inoculated with cotton aphids; settings: 200 ppm active ingredient, 10 ml scattered on cucumber seedling, counted five days after scattering
[7] = 500 ppm, 5 ml plant foot irrigation, urethane mat, aphids inoculated one day after treatment, counted seven days after
[8] = 500 ppm, 5 ml plant foot irrigation, plastic cup, aphids inoculated after seven days at 25° C., counted six days after
[9] = 500 ppm, 5 ml plant foot irrigation of rice seedling, first-instars released after seven days, counted six days after
[10] = 100 ppm, 5 ml on tissue paper with budding soybeans, ten insects, counted seven days after releasing, read-out: Mortality
[11] = 500 ppm, 10 ml scattered on rice plant seedling, 30 first-instars released, counted after six days at 25° C.
[12] = 500 ppm, 10 ml/cup scattered on tomato seedling at larvae stage, counted after seven days at 25° C.

## FC(F)(F)c1ccc2oc(-c3ccncc3)nc2c1 [active compound 13, 2-(pyridin-4-yl)-5-(trifluoromethyl)benzoxazole]
Cotton aphids [1]
  pest or weed control at 500 ppm: ≥ 90%
Halymorpha halys
  mortality at 100 ppm: ≥ 80%

## [O-][n+]1ccc(-c2nc3cc(C(F)(F)F)ccc3o2)cc1 [active compound 14, 4-[5-(trifluoromethyl)benzoxazole-2-yl]pyridine N-oxide]
Cotton aphids [2]; [7]
  pest or weed control at 500 ppm: ≥ 90%
Cotton aphids [1]; [8]
  pest or weed control at 500 ppm: ≥ 90%
Rice brown planthopper [3]; [9]
  pest or weed control at 500 ppm: ≥ 90%

## FC(F)(F)c1ccc2nc(-c3ccncc3)oc2c1 [active compound 15, 2-(pyridin-4-yl)-6-(trifluoromethyl)benzoxazole]
Halymorpha halys; [10]
  mortality at 100 ppm: ≥ 80%

## FC(F)(F)c1ccc2oc(-c3ccncc3Cl)nc2c1 [active compound 18, 2-(3-chloropyridin-4-yl)-5-(trifluoromethyl)benzoxazole]
Cotton aphids [2]
  pest or weed control at 500 ppm: ≥ 90%
Rice brown planthopper [3]
  pest or weed control at 500 ppm: ≥ 90%
Halymorpha halys
  mortality at 100 ppm: ≥ 80%

## [O-][n+]1ccc(-c2nc3cc(C(F)(F)F)ccc3o2)c(I)c1 [active compound 30, 3-iode-4-[5-(trifluoromethyl)benzoxazole-2-yl]pyridine N-oxide]
Cotton aphids [2]; [7]
  pest or weed control at 500 ppm: ≥ 90%
Cotton aphids [1]; [8]
  pest or weed control at 500 ppm: ≥ 90%
Rice brown planthopper [3]; [9]
  pest or weed control at 500 ppm: ≥ 90%

## CCc1cnccc1-c1nc2cc(C(F)(F)F)ccc2o1 [active compound 35, 2-(3-ethylpyridin-4-yl)-5-(trifluoromethyl)benzoxazole]
[4]
  pest or weed control at 500 ppm: ≥ 90%
Cotton aphids [2]
  pest or weed control at 500 ppm: ≥ 90%
Tobacco whitefly
  pest or weed control at 500 ppm: ≥ 90%
Rice brown planthopper [5]
  pest or weed control at 500 ppm: ≥ 90%
Rice brown planthopper [3]
  pest or weed control at 500 ppm: ≥ 90%
Halymorpha halys
  mortality at 100 ppm: ≥ 80%

## COc1cnccc1-c1nc2cc(C(F)(F)F)ccc2o1 [active compound 37, 2-(3-methoxypyridin-4-yl)-5-(trifluoromethyl)benzoxazole]
[4]
  pest or weed control at 500 ppm: ≥ 90%
Cotton aphids [2]
  pest or weed control at 500 ppm: ≥ 90%
Cotton aphids [1]
  pest or weed control at 500 ppm: ≥ 90%
Tobacco whitefly
  pest or weed control at 500 ppm: ≥ 90%
Rice brown planthopper [3]
  pest or weed control at 500 ppm: ≥ 90%
Halymorpha halys
  mortality at 100 ppm: ≥ 80%

## CC(C)(C)Sc1cnccc1-c1nc2cc(C(F)(F)F)ccc2o1 [active compound 44, 2-(3-tert-butylthiopyridin-4-yl)-5-(trifluoromethyl)benzoxazole]
Rice brown planthopper [3]
  pest or weed control at 500 ppm: ≥ 90%
Halymorpha halys
  mortality at 100 ppm: ≥ 80%

## FC(F)(F)c1ccc2oc(-c3ccncc3-n3cccn3)nc2c1 [active compound 58, 2-[3-(pyrazole-1-yl)pyridin-4-yl]-5-(trifluoromethyl)benzoxazole]
Cotton aphids [2]; [7]
  pest or weed control at 500 ppm: ≥ 90%
Cotton aphids [1]; [8]
  pest or weed control at 500 ppm: ≥ 90%
Rice brown planthopper [5]; [11]
  pest or weed control at 500 ppm: ≥ 90%
Rice brown planthopper [3]; [9]
  pest or weed control at 500 ppm: ≥ 90%

## FC(F)(F)c1ccc2oc(-c3ccncc3-n3cncn3)nc2c1 [active compound 63, 2-[3-(1,2,4-triazole-1-yl)pyridin-4-yl]-5-(trifluoromethyl)benzoxazole]
Cotton aphids [2]; [7]
  pest or weed control at 500 ppm: ≥ 90%
Cotton aphids [1]; [8]
  pest or weed control at 500 ppm: ≥ 90%
Tobacco whitefly; [12]
  pest or weed control at 500 ppm: ≥ 90%

## FC(F)(F)C(F)(F)c1ccc2oc(-c3ccncc3)nc2c1 [active compound 65, 5-(pentafluoroethyl)-2-(pyridin-4-yl)-benzoxazole]
Halymorpha halys; [10]
  mortality at 100 ppm: ≥ 80%

## FC(F)(F)C(F)(c1ccc2oc(-c3ccncc3Cl)nc2c1)C(F)(F)F [active compound 68, 2-(3-chloropyridin-4-yl)-5-(heptafluoroisopropyl)benzoxazole]
Rice brown planthopper [5]; [11]
  pest or weed control at 500 ppm: ≥ 90%
Halymorpha halys; [10]
  mortality at 100 ppm: ≥ 80%

## CC(=O)Nc1cnccc1-c1nc2cc(C(F)(F)F)ccc2o1 [active compound 82, N-[4-(5-trifluoromethylbenzoxazole-2-yl)pyridin-3-yl]acetamide]
Halymorpha halys; [10]
  mortality at 100 ppm: ≥ 80%

## FC(F)(F)c1ccc2oc(-c3ccncc3C(F)(F)F)nc2c1 [active compound 125, 5-trifluoromethyl-2-[3-(trifluoromethyl)pyridin-4-yl]-benzoxazole]
[4]; 500 ppm active ingredient, 10 ml scattered on cucumber seedling, counted five days after scattering
  pest or weed control at 500 ppm: ≥ 90%
Cotton aphids [2]; [7]
  pest or weed control at 500 ppm: ≥ 90%
Cotton aphids [1]; [8]
  pest or weed control at 500 ppm: ≥ 90%
Tobacco whitefly; [12]
  pest or weed control at 500 ppm: ≥ 90%
Rice brown planthopper [3]; [9]
  pest or weed control at 500 ppm: ≥ 90%

## c1ccc2oc(-c3ccncc3)nc2c1 [comparative compound (B)]
Cotton aphids [6]
  Control value: less than 30%
